Measured values as given in PubChem BioAssay AID248 (DTP/NCI, 2004).
Where “and” joins values, the source holds several entries; their conditions need not be identical. Identical values can stand only once. Toxic doses and inconclusive results are not listed. Rule as the data show it: active = T/C of 150% or more; inactive = T/C below 125%.

System: L1210 leukemia ip in BDF1 mice, survival T/C
Experiment: NCI In Vivo Anticancer Drug Screen. Data for tumor model L1210 Leukemia (intraperitoneal) in B6D2F1 (BDF1) mice
Conditions: endpoint: mean survival time, higher = longer survival
In short: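 Mice bearing the transplanted tumor received compound or vehicle. Survival of the treated group was divided by that of the vehicle-treated control group to give the ratio.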

[1] = dose: 100.0 mg/kg/injection, schedule: Q04DX003 (ip), vehicle: saline
[2] = dose: 100.0 mg/kg/injection, schedule: Q01DX009 (ip), vehicle: saline with Tween-80
[3] = dose: 200.0 mg/kg/injection, schedule: Q01DX009 (ip), vehicle: saline with Tween-80
[4] = dose: 200.0 mg/kg/injection, schedule: Q04DX003 (ip), vehicle: saline
[5] = dose: 100.0 mg/kg/injection, schedule: Q01DX001 (ip), vehicle: carboxymethylcellulose (CMC)
[6] = dose: 200.0 mg/kg/injection, schedule: Q01DX001 (ip), vehicle: carboxymethylcellulose (CMC)
[7] = dose: 400.0 mg/kg/injection, schedule: Q01DX001 (ip), vehicle: carboxymethylcellulose (CMC)
[8] = dose: 100.0 mg/kg/injection, schedule: Q04DX002 (ip), vehicle: Klucel (hydroxypropylcellulose) (HPC)
[9] = dose: 200.0 mg/kg/injection, schedule: Q04DX002 (ip), vehicle: Klucel (hydroxypropylcellulose) (HPC)
[10] = dose: 400.0 mg/kg/injection, schedule: Q04DX002 (ip), vehicle: Klucel (hydroxypropylcellulose) (HPC)
[11] = dose: 100.0 mg/kg/injection, schedule: Q04DX003 (ip), vehicle: Klucel (hydroxypropylcellulose) (HPC)
[12] = dose: 200.0 mg/kg/injection, schedule: Q04DX003 (ip), vehicle: Klucel (hydroxypropylcellulose) (HPC)
[13] = dose: 400.0 mg/kg/injection, schedule: Q04DX003 (ip), vehicle: Klucel (hydroxypropylcellulose) (HPC)
[14] = dose: 100.0 mg/kg/injection, schedule: Q01DX009 (ip), vehicle: Klucel (hydroxypropylcellulose) (HPC)
[15] = dose: 200.0 mg/kg/injection, schedule: Q01DX009 (ip), vehicle: Klucel (hydroxypropylcellulose) (HPC)
[16] = dose: 400.0 mg/kg/injection, schedule: Q01DX009 (ip), vehicle: Klucel (hydroxypropylcellulose) (HPC)
[17] = dose: 100.0 mg/kg/injection, schedule: Q01DX001 (ip), vehicle: saline
[18] = dose: 200.0 mg/kg/injection, schedule: Q01DX001 (ip), vehicle: saline
[19] = dose: 400.0 mg/kg/injection, schedule: Q01DX001 (ip), vehicle: saline

Measured: T/C

CCCCCCCCCCCCSC(=N)N
inactive: dose: 12.5 mg/kg/injection, schedule: Q01DX009 (ip), vehicle: acetone 103 % of control | dose: 12.5 mg/kg/injection, schedule: Q04DX003 (ip), vehicle: saline with Tween-80 98 % of control | dose: 25.0 mg/kg/injection, schedule: Q01DX009 (ip), vehicle: acetone 95 % of control | dose: 25.0 mg/kg/injection, schedule: Q04DX003 (ip), vehicle: saline with Tween-80 100 % of control | dose: 25.0 mg/kg/injection, schedule: Q04DX003 (ip), vehicle: saline 104 % of control | dose: 35.0 mg/kg/injection, schedule: Q04DX003 (ip), vehicle: saline 89 % of control | dose: 50.0 mg/kg/injection, schedule: Q04DX003 (ip), vehicle: saline with Tween-80 95 % of control | dose: 50.0 mg/kg/injection, schedule: Q04DX003 (ip), vehicle: saline 91 % of control | dose: 75.0 mg/kg/injection, schedule: Q04DX003 (ip), vehicle: saline 89 % of control | [1] 94 % of control and 95 % of control | dose: 115.0 mg/kg/injection, schedule: Q04DX003 (ip), vehicle: saline 97 % of control

CCOCC(=O)CC1CCCC1
inactive: dose: 50.0 mg/kg/injection, schedule: Q01DX009 (ip), vehicle: saline with Tween-80 103 % of control | [2] 100 % of control | [3] 95 % of control

CC1C=NNC1=O (stereo not given)
inactive: [2] 124 % of control | dose: 100.0 mg/kg/injection, schedule: Q01DX009 (ip), vehicle: saline 115 % of control | [1] 104 % of control | [4] 112 % of control | dose: 300.0 mg/kg/injection, schedule: Q#B X027 (ip), vehicle: saline 89 % of control | dose: 400.0 mg/kg/injection, schedule: Q04DX003 (ip), vehicle: saline 109 % of control

C=C(NC(=O)C(=C)NC(=O)c1csc(C2=NC3c4csc(n4)C4NC(=O)c5csc(n5)C(C(C)(O)C(C)O)NC(=O)C5CSC(=N5)/C(=C/C)NC(=O)C(C(C)O)NC(=O)c5csc(n5)C3(CC2)NC(=O)C(C)NC(=O)C(=C)NC(=O)C(C)NC(=O)C(C(C)CC)NC2C=Cc3c(C(C)O)cc(nc3C2O)C(=O)OC4C)n1)C(N)=O (stereo not given)
inactive: [5] 110 % of control | [1] 113 % of control | dose: 178.0 mg/kg/injection, schedule: Q01DX001 (ip), vehicle: saline 117 % of control | [6] 112 % of control | [7] 112 % of control

O=[N+]([O-])c1ccc(O)c(CN(Cc2ccccc2)Cc2c(O)ccc3ccccc23)c1
inactive: [5] 98 % of control | [6] 93 % of control | [7] 96 % of control

O=C(Nc1ccccn1)Nc1ccc([N+](=O)[O-])cc1[N+](=O)[O-]
inactive: [8] 108 % of control | [9] 104 % of control | [10] 97 % of control

O=C(OC12CCCCC1CCCC2)c1ccc([N+](=O)[O-])cc1 (stereo not given)
inactive: [11] 96 % of control | [3] 90 % of control | [12] 101 % of control | [13] 96 % of control

NOCc1csc(Nc2ccccc2)n1
inactive: [1] 100 % of control | [4] 88 % of control

CCc1ccc(NS(=O)(=O)c2ccccc2[N+](=O)[O-])cc1
inactive: [14] 105 % of control | [15] 105 % of control | [16] 113 % of control

CCCCCCCCNC(C)C1=C(O)c2ccccc2C(=O)C1=O (stereo not given)
inactive: dose: 100.0 mg/kg/injection, schedule: Q01DX001 (ip), vehicle: saline with Tween-80 89 % of control | dose: 200.0 mg/kg/injection, schedule: Q01DX001 (ip), vehicle: saline with Tween-80 86 % of control | dose: 400.0 mg/kg/injection, schedule: Q01DX001 (ip), vehicle: saline with Tween-80 86 % of control

COP(=O)(OC)c1nc(P(=O)(OC)OC)nc(P(=O)(OC)OC)n1
inactive: dose: 50.0 mg/kg/injection, schedule: Q01DX001 (ip), vehicle: saline 98 % of control | [17] 93 % of control | [18] 93 % of control | [19] 93 % of control

CC/C=C(\C)C1(CCC)C(=O)NC(=O)NC1=O
inactive: dose: 75.0 mg/kg/injection, schedule: Q01DX001 (ip), vehicle: saline 102 % of control | dose: 150.0 mg/kg/injection, schedule: Q01DX001 (ip), vehicle: saline 107 % of control

CC(=O)OCCc1ccc([N+](=O)[O-])cc1
inactive: dose: 100.0 mg/kg/injection, schedule: Q04DX002 (ip), vehicle: saline with Tween-80 97 % of control | dose: 200.0 mg/kg/injection, schedule: Q04DX002 (ip), vehicle: saline with Tween-80 93 % of control | dose: 400.0 mg/kg/injection, schedule: Q04DX002 (ip), vehicle: saline with Tween-80 97 % of control

C[C@]12C=CC(=O)C=C1CC[C@H]1[C@@H]3C[C@@H](O)[C@](O)(C(=O)CO)[C@@]3(C)C[C@H](O)[C@@]12F
inactive: dose: 50.0 mg/kg/injection, schedule: Q04DX003 (sc), vehicle: steriod suspending solution 102 % of control | dose: 100.0 mg/kg/injection, schedule: Q01DX001 (sc), vehicle: steriod suspending solution 105 % of control | dose: 100.0 mg/kg/injection, schedule: Q04DX003 (sc), vehicle: steriod suspending solution 97 % of control | dose: 200.0 mg/kg/injection, schedule: Q01DX001 (sc), vehicle: steriod suspending solution 107 % of control | dose: 200.0 mg/kg/injection, schedule: Q04DX003 (sc), vehicle: steriod suspending solution 106 % of control | dose: 400.0 mg/kg/injection, schedule: Q01DX001 (sc), vehicle: steriod suspending solution 105 % of control | dose: 400.0 mg/kg/injection, schedule: Q04DX003 (sc), vehicle: steriod suspending solution 110 % of control

Cc1c(Cl)ccc2c(=O)c(C(=O)O)c[nH]c12
inactive: [11] 95 % of control | [12] 103 % of control | [13] 97 % of control

CCCCSc1nc(=O)[nH]nc1SCc1ccccc1
inactive: [17] 98 % of control | [18] 93 % of control | [19] 95 % of control

COc1ccc(CCN2CC(=O)NC(=O)C2)cc1OC
inactive: dose: 25.0 mg/kg/injection, schedule: Q01DX009 (ip), vehicle: Klucel (hydroxypropylcellulose) (HPC) 95 % of control | dose: 25.0 mg/kg/injection, schedule: Q04DX003 (ip), vehicle: Klucel (hydroxypropylcellulose) (HPC) 104 % of control | dose: 50.0 mg/kg/injection, schedule: Q01DX009 (ip), vehicle: Klucel (hydroxypropylcellulose) (HPC) 96 % of control | dose: 50.0 mg/kg/injection, schedule: Q04DX003 (ip), vehicle: Klucel (hydroxypropylcellulose) (HPC) 104 % of control | [14] 101 % of control | [11] 101 % of control | [15] 101 % of control | [12] 101 % of control | [16] 101 % of control | [13] 109 % of control

CCC(=O)c1c(C)[nH]c(C)c1C
inactive: dose: 100.0 mg/kg/injection, schedule: Q01DX001 (ip), vehicle: Klucel (hydroxypropylcellulose) (HPC) 96 % of control | dose: 200.0 mg/kg/injection, schedule: Q01DX001 (ip), vehicle: Klucel (hydroxypropylcellulose) (HPC) 95 % of control | dose: 400.0 mg/kg/injection, schedule: Q01DX001 (ip), vehicle: Klucel (hydroxypropylcellulose) (HPC) 96 % of control

CCCNC(=O)Oc1ccc2ccccc2c1
inactive: dose: 100.0 mg/kg/injection, schedule: Q01DX001 (ip), vehicle: other 103 % of control | dose: 100.0 mg/kg/injection, schedule: Q01DX009 (ip), vehicle: other 93 % of control and 100 % of control | [8] 95 % of control | dose: 100.0 mg/kg/injection, schedule: Q04DX002 (ip), vehicle: other 100 % of control and 101 % of control | dose: 200.0 mg/kg/injection, schedule: Q01DX001 (ip), vehicle: other 94 % of control | dose: 200.0 mg/kg/injection, schedule: Q01DX009 (ip), vehicle: other 94 % of control and 116 % of control | [9] 103 % of control | dose: 200.0 mg/kg/injection, schedule: Q04DX002 (ip), vehicle: other 93 % of control and 95 % of control | dose: 400.0 mg/kg/injection, schedule: Q01DX001 (ip), vehicle: other 101 % of control | dose: 400.0 mg/kg/injection, schedule: Q01DX009 (ip), vehicle: other 93 % of control and 94 % of control | [10] 100 % of control | dose: 400.0 mg/kg/injection, schedule: Q04DX002 (ip), vehicle: other 93 % of control and 96 % of control
